Results: US11685716B2, “Plant growth inhibiting agent, and plant growth inhibiting method using same” (NATIONAL UNIVERSITY CORPORATION KUMAMOTO UNIVERSITY, priority 2017, dated 2023)

Columns and labels:
Assay in all cases: Spray treatment to stems and leaves, killing weed index (Evaluation 10)
Type in all cases: in vivo
velvet leaf = details: 2000 g active ingredient per hectare, two weeks later
Method: (§1) POA allyl phenyl ether (4.1 parts by weight), POE-POP glycol (1 part by weight), POE sorbitan laurate (0.8 parts by weight), glycerin (2.6 parts by weight), dimethylformamide (65.9 parts by weight), N-methylpyrrolidone (5.1 parts by weight), cyclohexanone (15.4 parts by weight), and aromatic hydrocarbon (5.1 parts by weight) were mixed and dissolved to prepare an emulsion. The compounds of the present invention (4 mg) were dissolved in this emulsion (100 μL) to prepare a test emulsion. In addition, POA means “polyoxyalkylene”, POE means “polyoxyethylene”, and POP means “polyoxypropylene.”
(§2) Four hundred μL of the above test emulsion was diluted with 7600 μL of water to use as a test spray liquid.
(§3) Further, 400 μL of the above test emulsion was diluted with 1600 μL of a 1% Tween20 aqueous solution to use as a spray liquid for a small amount spray test.
(§4) For a comparative spray liquid, 53 μL of a 30% pendimethalin emulsion (Gogosan emulsion: manufactured by BASF Japan) as a control pesticides was diluted with 7947 μL of water. Further, for a comparative spray liquid for a small amount spray test, 53 μL of the 30% pendimethalin emulsion was diluted with 1947 μL of water.
(§5) A 150 cm^2 pot was filled with a soil, seeds of each purple amaranth, Japanese bristlegrass, southern crabgrass, and velvet leaf were sown on the surface layer, lightly covered with a soil and grown in a greenhouse. When each plant grew to a plant height of 2 to 9 cm, the test spray liquid was sprayed to the stem and leaf parts with a small spraying machine such that an active ingredient amount was 2000 g per hectare and a sprayed liquid amount was 1000 L per hectare.
(§6) Similarly, the test spray liquid for a small amount spray test was sprayed to the stem and leaf parts with a small spraying machine such that an active ingredient amount was 2000 g per hectare and a sprayed liquid amount was 250 L per hectare.
(§7) Two weeks later, the above-ground grass weight in non-treated areas and the above-ground grass weight in treated areas, by the weed, were measured to calculate a killing weed rate by the following calculating formula.
(§8) (a) Calculating Formula of Weeding Rate Killing weed rate (%)=(above-ground grass weight in non-treated area−above-ground grass weight in treated area)/(above-ground grass weight in non-treated area)×100 (b) Killing Weed Indexes
(§9) The obtained killing weed rates were evaluated, such that a killing weed index was “10” when a killing weed rate is 100%, as “9” when a killing weed rate is 99% to 90%, “8” when a killing weed rate is 89% to 80%, “7” when a killing weed rate is 79% to 70%, “6” when a killing weed rate is 69% to 60%, “5” when a killing weed rate is 59% to 50%, “4” when a killing weed rate is 49% to 40%, “3” when a killing weed rate is 39% to 30%, “2” when a killing weed rate is 29% to 20%, “1” when a killing weed rate is 19% to 10%, and “0” when a killing weed rate is 9% to 0%.

Japanese bristlegrass = details: 2000 g active ingredient per hectare, sprayed liquid amount 250 L/ha, two weeks later
Method: as §1, §2, §3, §4, §5, §6, §7, §8, §9

purple amaranth = details: 2000 g active ingredient per hectare, two weeks later
Method: as §1, §2, §3, §4, §5, §6, §7, §8, §9

southern crabgrass = details: 2000 g active ingredient per hectare, two weeks later
Method: as §1, §2, §3, §4, §5, §6, §7, §8, §9

[1] = sprayed liquid amount 1000 L/ha

SMILES: CCC(CC)Nc1c([N+](=O)[O-])cc(C)c(C)c1[N+](=O)[O-] [pendimethalin, reference compound]
- killing weed index, Velvet leaf (velvet leaf; sprayed liquid amount 250 L/ha): 5 (“5” when a killing weed rate is 59% to 50%)
- killing weed index, Velvet leaf (velvet leaf; [1]): 4 (“4” when a killing weed rate is 49% to 40%)
- killing weed index, Japanese bristlegrass (Japanese bristlegrass): 6 (“6” when a killing weed rate is 69% to 60%)
- killing weed index, Purple amaranth (purple amaranth; sprayed liquid amount 250 L/ha): 6 (“6” when a killing weed rate is 69% to 60%)
- killing weed index, Purple amaranth (purple amaranth; [1]): 0 (“0” when a killing weed rate is 9% to 0%)
- killing weed index, Southern crabgrass (southern crabgrass; sprayed liquid amount 250 L/ha): 6 (“6” when a killing weed rate is 69% to 60%)
- killing weed index, Southern crabgrass (southern crabgrass; [1]): 6 (“6” when a killing weed rate is 69% to 60%)
